In patent US4665086A, “Method for minimizing disturbances in circadian rhythms of bodily performance and function” (priority 1983, dated 1987):
Entries after “also recorded” stand apart in the source; their conditions may differ.

How the values were obtained:
[1] = tested on: circadian rhythms in humans (jet lag); assay: Example 1: Subject A, flight Melbourne-North Carolina-Melbourne, melatonin at local bedtime; format: in vivo, human
Source text: Subject A was a Professor of Physiology who had never taken melatonin before. |Flight from Melbourne → North Carolina, U.S.A. → Melbourne. |Details of activity schedule, sleeping time, melatonin administration. In this example Subject A used a preparation of crystalline melatonin in a gelatin capsule.

[2] = tested on: circadian rhythms in humans (jet lag); assay: Example 5: Subject B, double-blind trial, Capsule A (melatonin) vs Capsule B (placebo), flight Melbourne-Geneva-Rotterdam-Melbourne; format: in vivo, human
Source text: Subject B Flight from Melbourne→Geneva→Rotterdam→Melbourne 30.1.84-19.2.84
This was a double-blind trial. The subject, a Clinical Professor who had never taken Melatonin before, was given two bottles labelled A and B containing identical-looking gelatin capsules, and told to take one capsule A on going to bed, and again if awaking in the middle of the night, for the first 4 days after arrival in Geneva. They were told to take one capsule B according to the same schedule after return to Melbourne, and to record the quality of each night's sleep and feelings during the daytime. Capsule A contained 5 mg Melatonin. and capsule B contained a placebo (sucrose). Only after the subject had completed their written report 4 days after returning to Melbourne were they told which pills contained Melatonin and which contained placebo.

[3] = tested on: circadian rhythms in humans (jet lag); assay: Example 6: Subject C, flight Melbourne-Los Angeles-Washington-London-Vancouver-Melbourne, verbatim account; format: in vivo, human; details: for overall effect on jet-lag (subject's impression, comment): 5 mg capsule on retiring and a second on awaking
Method: Subject C Flight from Melbourne→Los Angeles→Washington→London→Vancouver→Melbourne. 15.2.84-27.3.84 The subject, a Professor who had never taken Melatonin before, was given gelatin capsules containing 5 mg Melatonin and instructed to take one capsule on going to bed in the evening (local time) after arrival at their destination, and to take a further capsule if they awoke in the night.

[4] = Example 9: absorption and clearance of orally administered melatonin, plasma radioimmunoassay; format: in vivo, human
Source text: This was two hours after a light breakfast of apple juice, cereal and tea. Blood sampling was continued until 1400 hrs. The blood was immediately centrifuged, and the plasma frozen until assayed for melatonin using a specific radioimmunoassay developed in the inventors' laboratory as a modification of the procedure originally described by D. J. Kennaway et al. (Endocrinology 110, 1766, 1982.) The results are shown in the accompanying FIG. 2.

[5] = tested on: free-running circadian activity rhythm of rats; details: pharmacological doses, only when given at onset of spontaneous activity; cited from earlier work
[6] = Capsule A = 5 mg Melatonin, Geneva

Structure (SMILES): COc1ccc2[nH]cc(CCNC(C)=O)c2c1 [melatonin, 5-methoxy-N-acetyltryptamine]
- symptoms of jet lag / fatigue (comment) ([1]; 2.5-5.0 mg oral melatonin at bedtime and on waking): no symptoms of jet lag whatsoever; also recorded: never felt any fatigue whatsoever
- feeling on awakening after melatonin sleep (diary) ([1]; 2.5 or 5.0 mg oral per dose): Felt fresh, relaxed, not jet-lagged; also recorded: felt fresh, relaxed
- sleep after taking melatonin (diary) ([1]; 2.5 or 5.0 mg oral per dose): fell asleep again
- time to fall asleep again after taking additional melatonin ([1]; awoke during the night in North Carolina, oral crystalline melatonin in gelatin capsule): ≤ 15 min
- time after entering new time zone until able to sleep at period coinciding with early morning in zone of departure [2]: ≤ 24 h
- subject's blinded conclusion on effect of capsule ([2]; 5 mg melatonin per capsule, first 4 days in Geneva, double-blind): making them less tired and more alert in the meetings at WHO in Geneva
- feeling during day (diary) [2, 6]: felt tired in morning
- sleep after taking capsule (diary) [2, 6]: fell asleep again; also recorded: slept well; also recorded: sleep well
- overall effect on jet-lag (subject's impression, comment) [3]: prevented the usual, unpleasant symptoms associated with rapid changes in time zones
- overall effect on jet-lag (subject's impression, comment) ([3]; listed as Melatonin): great improvement over my normal experience of jet-lag
- feeling / adjustment the day after melatonin ([3]; Los Angeles, London (5 h change), Vancouver (8 h change)): felt very close to normal; also recorded: feeling normal and appeared to be fully adjusted to the London time; also recorded: felt a little unusual and later, around 4.00 pm felt very sleepy
- sleep after taking melatonin ([3]; first night in Los Angeles): sleep that night appeared normal
- plasma melatonin concentration at which subjective feelings of drowsiness were experienced ([4]; Subject A, 5 mg oral): exceeded 2 ng/ml
- subjective effects coincident with maximal plasma levels ([4]; Subject A, 5 mg oral): yawning and sleepiness
- Tmax ([4]; human, plasma, po, 5 mg, Subject A, 5 mg oral in gelatin capsule, read-out: time after ingestion to peak plasma concentration (converted)): 1.1 h
- plasma values 260 minutes after ingestion relative to normal nocturnal values of around 100 pg/ml plasma ([4]; in vivo, po): 10 times higher
- entrainment of free-running circadian activity rhythm [5]: could entrain the free-running circadian activity rhythm of rats
